Measured values from paper PMC7394005, “Assessing the Selectivity of FXR, LXRs, CAR, and RORγ Pharmaceutical Ligands With Reporter Cell Lines” (Frontiers in Pharmacology, 2020).
pEC50, pIC50: −log10 of the molar value.

Legend:
[1] = system: HG5LN parental cell line; assay: Non-specific modulation of luciferase expression in HG5LN parental cell line; format: cell-based, human; conditions: HG5LN parental cells lacking Gal4-NRs; Figure S2
Protocol: HG5LN and HG5LN PXR cells have already been described ([Delfosse et al., 2015]). To characterize the specificity of chemicals for human FXR, LXRα, LXRβ, CAR and RORγ, we established in a similar manner HG5LN FXR, LXRα, LXRβ, CAR WT, CAR (APYLT) and RORγ reporter cell lines. HG5LN are HeLa cells stably transfected by the (GAL4RE)5-βGlob-Luc-SVNeo plasmid ([Seimandi et al., 2005]). These cells were stably transfected by pSG5-GAL4 (DBD)-NRs (LBD)-puromycin plasmid and selected in presence of 0.5 µg/ml puromycin. […] From each HG5LN NR cells, 5 to 10 clones were chosen for their ligand inducibility of luciferase expression. We noted that the basal activity in absence of ligand strongly differed among NRs. FXR, LXRs, and CAR APYLT had the lowest basal activities, whereas CAR and RORγ had the highest. The most inducible clones were expanded and rechecked for inducibility and aliquots were frozen at different passages. One clone per receptor was maintained in culture and used for ligand screening. HG5LN cells were cultured in Dulbecco’s modified Eagle’s medium (DMEM): Nutrient Mixture F-12 (DMEM/F-12) containing phenol red and 1 g/l glucose and supplemented with 5% fetal bovine serum, 100 units/ml of penicillin, 100 µg/ml of streptomycin and 1 mg/ml geneticin, in 5% CO2 humidified atmosphere at 37°C. Stably transfected cell lines derived from HG5LN cells were cultured in the same culture medium supplemented with 0.5 µg/ml puromycin.
Individual reporter cell lines were seeded at a density of 40,000 cells per well in 96-well white opaque tissue culture plates (Greiner CellStar) in Dulbecco’s Modified Eagle Medium: Nutrient Mixture F-12 (DMEM/F-12) without phenol red and 1 g/l glucose and supplemented with 5% stripped fetal bovine serum, 100 units/ml of penicillin, 100 µg/ml of streptomycin (test medium). Chemicals to be tested were added 24h later, and cells were incubated at 37°C for 16h. Experiments were performed in quadruplicates. At the end of the incubation period, culture medium was replaced with test medium containing 0.3 mM luciferin solution. Luciferase activity was measured for 2s in intact living cells after 10 min stabilization using a Micro Beta Wallac luminometer (PerkinElmer). EC50 values were calculated using GraphPad Prism (GraphPad Software Inc).
To evaluate the FXR, LXRα, LXRβ, PXR, CAR, and RORγ specificity of pharmaceutical chemicals, we established HG5LN reporter cell lines expressing human FXR, LXRα, LXRβ, CAR, CAR (+ APYLT), and RORγ. Then, we tested the agonistic/antagonistic potential of 22 commercially available pharmaceutical compounds ( Figure S1 ) on these cells and in the previously established PXR cell line ([Delfosse et al., 2015]). The 22 chemicals were first tested for non-specific modulation of luciferase expression on the HG5LN parental cell line, which contains the same reporter gene as HG5LN-GAL4-NRs cells, but lacks of Gal4-NRs. […] The basal (in absence of ligand) and the maximal (in presence of NR-specific full agonist) activities of HG5LN and the different HG5LN GAL4-NRs were measured. […] The expression of FXR induced the slight repression of basal transcription, while both LXRs and PXR had no effect, or just slightly activated the basal transcription ( Figure 1 ). Consequently, the baseline activities were normalized as percentage of maximal activity mediated by full agonists, as follows: 6% for FXR, 8% for LXRα, 9% for LXRβ, 19% for PXR ( Table 1 ). On the contrary, the basal activity was increased by the expression of CAR and RORγ. Due to the inherent constitutive activity, we determined this activity equal to 100% as the specific agonists were not able to reveal their transactivation potential alone, but they were able to reverse the inhibition caused by antagonists/reverse agonists. To characterize easily CAR agonists, we used cell line expressing a variant of CAR (CAR + APYLT) with reduced basal ([Auerbach et al., 2003]). […]

[2] = system: CAR/SRC-1; parameters: method as in Maglich et al., 2003; conditions: ref Maglich et al., 2003; read-out: EC50 in the CAR/SRC-1 FRET assay; cited from earlier work
[3] = system: FXR; parameters: method as in Yu et al., 2014; conditions: ref Yu et al., 2014; read-out: IC50 in FXR cell-based antagonistic assays; cited from earlier work
[4] = system: LXRβ; conditions: luciferase reporter gene with LXR response elements in HEK293 cells; ref Peng et al., 2011; cited from earlier work
[5] = system: type 1 diabetes model mice; parameters: method as in Solt et al., 2015; conditions: ref Solt et al., 2015; cited from earlier work
[6] = system: RORγt; parameters: method as in Rene et al., 2014; Chang et al., 2016; conditions: full-length RORγt transfected cells; ref Rene et al., 2014; Chang et al., 2016; read-out: EC50, induction of reporter gene expression; cited from earlier work
[7] = system: hPXR LBD; parameters: method as in Shukla et al., 2011; conditions: ref Shukla et al., 2011; cited from earlier work
[8] = system: hPXR; parameters: method as in Lin et al., 2017; conditions: ref Lin et al., 2017; read-out: IC50 in the cell-based hPXR antagonistic assay; cited from earlier work

**Q.** With `Clc1ccc(-c2nc3sccn3c2/C=N/OCc2ccc(Cl)c(Cl)c2)cc1` [CITCO] as the molecule, how does the “Nonspecific activation of luciferase expression in HG5LN parental cell line” value (“Nonspecific activation” for short) [1] read?
**A.** significant nonspecific activation

**Q.** What about the pEC50 [2] of the same molecule?
**A.** 7.31

**Q.** With `Clc1ccccc1C(c1ccccc1)(c1ccccc1)n1ccnc1` [Clotrimazole, clotrimazole] as the molecule, how does the “Toxicity (non-specific decrease of luciferase expression) in HG5LN parental cell line” value [1] read?
**A.** most toxic

**Q.** Which “Nonspecific activation” value [1] does the source give for `COc1cccc(Cn2cc(C(=O)Nc3ccc(C)c(S(=O)(=O)N4CCOCC4)c3)c(-c3ccc(C)cc3)n2)c1` [DY268] here?
**A.** significant nonspecific activation

**Q.** And the pIC50 [3]?
**A.** 6.33

**Q.** With `Cc1cc(C)c(S(=O)(=O)N(Cc2ccc(-c3cccc(S(C)(=O)=O)c3)cc2)Cc2ccc(C(F)(F)F)o2)c(C)c1` [GSK2033] as the molecule, how does the “Nonspecific activation” value [1] read?
**A.** significant nonspecific activation

**Q.** For `O=C(O)Cc1cccc(OCCCN(Cc2cccc(C(F)(F)F)c2Cl)CC(c2ccccc2)c2ccccc2)c1` [GW3965], which LXRβ agonistic potency [4] is on record?
**A.** nanomolar

**Q.** For `CC(C)c1onc(-c2c(Cl)cccc2Cl)c1COc1ccc(/C=C/c2cccc(C(=O)O)c2)c(Cl)c1` [GW4064], which “Nonspecific activation” value [1] is on record?
**A.** significant nonspecific activation

**Q.** With `CC(=O)Nc1nc(C)c(S(=O)(=O)Nc2ccc(C(O)(C(F)(F)F)C(F)(F)F)cc2)s1` [SR1001] as the molecule, how does the “Diabetes incidence and insulitis” value [5] read?
**A.** significantly reduced diabetes incidence and insulitis

**Q.** With `O=C(Nc1ccc(C(O)(C(F)(F)F)C(F)(F)F)cc1)c1ccc(C(F)(F)F)cc1` [SR1078] as the molecule, how does the pEC50 [6] read?
**A.** 6.10

**Q.** With `CCOP(=O)(OCC)C(=Cc1cc(C(C)(C)C)c(O)c(C(C)(C)C)c1)P(=O)(OCC)OCC` [SR12813] as the molecule, how does the pEC50 [7] read?
**A.** 6.36

**Q.** For `Fc1ccc(-c2c3cccc(C(F)(F)F)c3nn2Cc2ccc(F)cc2Cl)cc1` [WAY252623], which “Nonspecific activation” value [1] is on record?
**A.** significant nonspecific activation

**Q.** For SPA70, which “Toxicity (non-specific decrease of luciferase expression) in HG5LN parental cell line” value [1] is on record?
**A.** most toxic

**Q.** And the pIC50 [8]?
**A.** 6.29
